Here are results for eleven compounds from ChEMBL document CHEMBL1201862, “PubChem BioAssay data set” (2004).

Test [1] has as its target Peroxisome proliferator-activated receptor gamma/Nuclear receptor coactivator 1 (Homo sapiens, UniProt P37231). Briefly: TR-FRET dose response biochemical High Throughput Screening assay for agonists of the steroid receptor coactivator 1 (SRC-1) recruitment by the peroxisome proliferator-activated receptor gamma (PPAR gamma): non-selective agonists. [Related pubchem assays (depositor defined):AID1300, AID1808, AID504735, AID631]. Type of test: protein assay. On the technique in general: In TR-FRET formats the signal depends on donor and acceptor labels being close together.

In test [2] the target is Peroxisome proliferator-activated receptor gamma/Nuclear receptor coactivator 3 (Homo sapiens, UniProt P37231). The test is described as follows: TR-FRET dose response biochemical High Throughput Screening assay for agonists of the steroid receptor coactivator 3 (SRC-3) recruitment by the peroxisome proliferator-activated receptor gamma (PPAR gamma): non-selective agonists. [Related pubchem assays: 1301 (Confirmation screen.), 1048 (Primary screen.)]. Type of test: functional.

The target in test [3] is Peroxisome proliferator-activated receptor gamma/Nuclear receptor coactivator 2 (Homo sapiens, UniProt P37231). The test is described as follows: TR-FRET dose response biochemical High Throughput Screening assay for agonists of the steroid receptor coactivator 2 (SRC-2) recruitment by the peroxisome proliferator-activated receptor gamma (PPAR gamma): non-selective agonists. [Related pubchem assays: 1297, 1032 ]. Type of test: functional.

A further test concerns the target Cysteine protease ATG4B (Homo sapiens, UniProt Q9Y4P1). Type of test: functional.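 Further: Fluorescence-based dose-response confirmation assay measuring inhibition of ATG4B activity.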
The next test concerns the target Phospholipase A2 (Homo sapiens, UniProt P04054). Type of test: functional.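 Further: confirmatory dose-response counterscreen on phospholipase A2, testing hits that came from an ultra-high-throughput screen for ATG4B inhibitors.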
Test [4] concerns the target T1, Kappa-type opioid receptor (Homo sapiens, UniProt P41145). The test is described as follows: SAR analysis of small molecule agonists of the kappa opioid receptor via a luminescent beta-arrestin assay. [Related pubchem assays (depositor defined):AID1777, AID1786, AID1966, AID2133, AID2136, AID2348, AID2352, AID2357, AID2359, AID2370, AID2420, AID2478, AID2491, AID2492, AID2493, AID2497, AID2498, AID2500, AID449737, AID488822, AID488842]. Type of test: functional.

In test [5] the target is T2, Mu-type opioid receptor (Homo sapiens, UniProt P35372). The test is described as follows: MOR agonists by imaging, SAR follow-up, image-based (AID 2352). Type of test: functional.
In test [6] the target is T3, Delta-type opioid receptor (Homo sapiens, UniProt P41143). The test is described as follows: DOR agonists, SAR follow-up, image-based (AID 2370). Type of test: functional.
The target in test [7] is T1, Kappa-type opioid receptor. Briefly: KOR antagonists by imaging, SAR follow-up, image-based (AID 2348). Type of test: functional.
Test [8] concerns the target T2, Mu-type opioid receptor. Briefly: MOR antagonists, SAR follow-up, image-based (AID 2420).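 Further: compounds added before stimulation of receptor with agonist DAMGO.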 Type of test: functional.
Test [9] has as its target T1, Kappa-type opioid receptor. The test is described as follows: KOR agonist analogs, imaging readout, SAR follow-up, image-based (AID 2359). Type of test: functional.
Test [10] addresses T3, Delta-type opioid receptor. Briefly: DOR antagonists, SAR follow-up, image-based (AID 2357). Type of test: functional.
Test [11] has as its target Lysine-specific demethylase 4C (Homo sapiens, UniProt Q9H3R0). The test is described as follows: GASC-1 (JMJD2C) histone demethylase inhibitors, dose response, biochemical, DELFIA europium, cherry-picked samples (AID 488835). Type of test: functional.
Test [12] can be described thus: HEp-2 cell cytotoxicity, dose response, cytotoxicity control for RSV inhibitor project, HTS (AID 2410). Type of test: functional. The note with it: human respiratory syncytial virus.
A further test concerns the target Troponin, cardiac muscle (Homo sapiens, UniProt P19429+P45379+P63316). Briefly: Fluorescence-based biochemical high throughput dose response assay for activators of the calcium sensitivity of cardiac Regulated Thin Filaments (RTF). [Related pubchem assays (depositor defined):AID493008, AID493018, AID504382, AID504383]. Type of test: protein-complex assay.
For test [13], the target named is T4, Endoribonuclease toxin MazF (Escherichia coli K-12, UniProt P0AE70).
T4 sequence (P0AE70 whole entry): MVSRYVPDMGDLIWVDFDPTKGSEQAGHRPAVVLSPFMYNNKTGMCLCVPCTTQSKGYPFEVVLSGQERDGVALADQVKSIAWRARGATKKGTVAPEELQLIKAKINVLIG
The test is described as follows: MazF toxin RNase activators, dose response, biochemical, fluorescence, single-stranded RNA substrate, uHTS hits (AID 588481). Type of test: functional.

Test [14] has as its target T4, Endoribonuclease toxin MazF. The test is described as follows: fluorescent RNA oligo signal without MazF, dose response, counter-screen for MazEF activator project, biochemical, fluorescence, single-stranded RNase substrate (AID 588502). Type of test: functional. (Counterscreens check selectivity or assay interference.)
A short description of test [15]: Luminescence Cell-Based Dose Confirmation HTS to Identify Activators of 5'UTR Stem-Loop Driven Alpha-Synuclein mRNA Translation in H4 Neuroglioblastoma Cells. [Related pubchem assays: 1829 (Project Summary), 1814 (Primary HTS)]. Type of test: functional.
A short description of test [16]: Luminescence Cell-Based Dose Response HTS to Identify Activators of Luciferase Translation or Activity in H4 […] Cells. [Related pubchem assays: 1829 (Project Summary), 1814 (Primary HTS)]. Type of test: functional.
The next test deals with H4. The test is described as follows: Luminescence Cell-Based Dose Response HTS to Identify Activators of 5'UTR Stem-Loop Driven Prion Protein mRNA Translation in H4 Neuroglioblastoma Cells. [Related pubchem assays: 1829 (Project Summary), 1814 (Primary HTS)]. The note with it: Homo sapiens. Type of test: functional.
The nature of test [17]: inhibitors of intracellular T. cruzi replication, confirmation, NIH3T3 host cells, beta-gal luminescence (AID 2044).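 Further: intracellular parasites grown in NIH/3T3 mouse fibroblasts as host cells; luminescent beta-galactosidase reporter signal from transgenic T. cruzi replicating inside host cells; inhibitors lower the luminescence signal.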 Type of test: functional, cell-based.
The nature of test [18]: cytotoxicity toward NIH3T3 fibroblasts, dose response, counter-screen, cell-based, ATP luminescence, mouse fibroblasts (AID 2010).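 Further: cells exposed to compound for about 90 hours before reading.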 Type of test: functional.
Test [19] in a line: THP-1 cell cytotoxicity, dose response, cytotoxicity control for non-replicating M. tuberculosis project (AID 489025). Type of test: functional.
A short description of test [20]: HepG2 cell cytotoxicity, dose response, cytotoxicity control for non-replicating M. tuberculosis project (AID 489018). Type of test: functional. The note with it: Mycobacterium tuberculosis.
Test [21] can be described thus: Vero E6 cell cytotoxicity, dose response, cytotoxicity control for non-replicating M. tuberculosis project, secondary assay (AID 492998). Type of test: functional, VeroE6. Particulars: Vero C1008.
Another test is described as follows: cells. Type of test: functional.
The target of test [22] is Apoptotic protease-activating factor 1 (Homo sapiens, UniProt O14727). Type of test: functional.
The target of test [23] is T3, Delta-type opioid receptor. Briefly: Counterscreen for agonists of heterodimerization of the mu 1 (OPRM1) and delta 1 (OPRD1) opioid receptors: Luminescence-based cell-based high throughput dose response assay to identify agonists of OPRD1 homodimerization. [Related pubchem assays (depositor defined):AID504326, AID504355, AID504692, AID504904, AID504905]. Type of test: functional.

In test [24] the target is T2, Mu-type opioid receptor. Briefly: Counterscreen for agonists of heterodimerization of the mu 1 (OPRM1) and delta 1 (OPRD1) opioid receptors: Luminescence-based cell-based high throughput dose response assay to identify agonists of OPRM1 homodimerization. Type of test: functional.
The target of test [25] is 5-hydroxytryptamine receptor 5A (Homo sapiens, UniProt P47898). Briefly: Counterscreen for agonists of OPRM1-OPRD1 heterodimerization: luminescence-based cell-based high throughput dose response assay to identify agonists of 5-hydroxytryptamine (serotonin) 5A receptor (HTR5A). [Related pubchem assays (depositor defined):AID504326, AID504355, AID504692, AID504904, AID504905]. Type of test: functional.

The target of test [26] is Beta-2 adrenergic receptor (Homo sapiens, UniProt P07550). The test is described as follows: beta2AR agonists driving receptor internalization, dose response, cell-based, FAP fluorogen, flow cytometry, cherry pick 1 (AID 588763). Type of test: functional. In general terms: A flow cytometer gives signals particle by particle.

Several values for one entry are separate records, joined by “and”; a condition that tells them apart may be missing. Equal values may be shown once. Activity calls are given as the source filed them.

T2 sequence (P35372 whole entry): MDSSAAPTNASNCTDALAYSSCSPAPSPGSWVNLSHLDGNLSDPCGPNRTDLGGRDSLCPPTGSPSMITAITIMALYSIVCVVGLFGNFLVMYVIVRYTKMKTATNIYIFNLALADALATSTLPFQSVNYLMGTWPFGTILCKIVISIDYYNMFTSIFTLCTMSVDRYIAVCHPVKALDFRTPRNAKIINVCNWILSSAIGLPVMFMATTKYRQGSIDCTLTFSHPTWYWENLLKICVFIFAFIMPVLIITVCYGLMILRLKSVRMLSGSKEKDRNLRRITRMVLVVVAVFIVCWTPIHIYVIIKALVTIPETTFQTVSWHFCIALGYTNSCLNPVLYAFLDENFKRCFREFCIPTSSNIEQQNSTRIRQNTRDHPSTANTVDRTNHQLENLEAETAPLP
T1 sequence (P41145 whole entry): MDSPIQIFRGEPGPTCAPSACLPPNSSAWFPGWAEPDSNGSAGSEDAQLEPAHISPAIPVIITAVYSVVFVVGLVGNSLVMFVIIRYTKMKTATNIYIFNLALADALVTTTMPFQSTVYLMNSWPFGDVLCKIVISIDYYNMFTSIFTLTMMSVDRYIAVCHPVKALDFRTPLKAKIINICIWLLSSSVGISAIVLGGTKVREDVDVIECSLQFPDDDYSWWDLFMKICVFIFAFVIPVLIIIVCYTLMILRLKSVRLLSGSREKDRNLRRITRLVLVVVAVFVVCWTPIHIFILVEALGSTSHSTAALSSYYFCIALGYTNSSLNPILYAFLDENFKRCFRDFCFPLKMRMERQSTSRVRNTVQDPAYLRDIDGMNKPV
Chain of Beta-2 adrenergic receptor (P07550 whole entry): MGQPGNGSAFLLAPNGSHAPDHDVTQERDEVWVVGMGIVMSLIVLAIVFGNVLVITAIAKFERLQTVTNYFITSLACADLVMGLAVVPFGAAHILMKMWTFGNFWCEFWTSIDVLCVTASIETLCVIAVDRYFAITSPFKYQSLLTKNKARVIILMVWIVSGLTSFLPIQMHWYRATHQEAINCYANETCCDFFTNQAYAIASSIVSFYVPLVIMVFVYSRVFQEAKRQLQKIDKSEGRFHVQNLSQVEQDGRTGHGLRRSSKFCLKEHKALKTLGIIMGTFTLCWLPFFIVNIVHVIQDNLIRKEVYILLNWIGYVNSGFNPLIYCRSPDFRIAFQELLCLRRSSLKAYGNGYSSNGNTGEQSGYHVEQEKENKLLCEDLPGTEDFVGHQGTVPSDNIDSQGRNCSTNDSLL
T3 sequence (P41143 whole entry): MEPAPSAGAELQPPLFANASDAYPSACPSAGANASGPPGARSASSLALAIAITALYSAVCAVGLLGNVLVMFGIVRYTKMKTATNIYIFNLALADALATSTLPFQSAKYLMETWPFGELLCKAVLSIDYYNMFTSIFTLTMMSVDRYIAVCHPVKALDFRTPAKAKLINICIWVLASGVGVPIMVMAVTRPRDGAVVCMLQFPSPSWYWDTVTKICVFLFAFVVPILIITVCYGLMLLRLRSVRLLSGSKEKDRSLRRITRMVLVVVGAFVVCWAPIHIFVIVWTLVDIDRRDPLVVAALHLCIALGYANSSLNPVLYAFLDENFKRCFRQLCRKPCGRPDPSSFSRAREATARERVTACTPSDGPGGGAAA
Chain of Phospholipase A2 (P04054 whole entry): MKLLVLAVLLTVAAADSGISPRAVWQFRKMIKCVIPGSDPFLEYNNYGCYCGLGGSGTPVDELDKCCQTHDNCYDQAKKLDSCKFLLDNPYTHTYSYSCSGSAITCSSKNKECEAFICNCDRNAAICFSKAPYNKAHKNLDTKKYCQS
Chain of Cysteine protease ATG4B (Q9Y4P1 whole entry): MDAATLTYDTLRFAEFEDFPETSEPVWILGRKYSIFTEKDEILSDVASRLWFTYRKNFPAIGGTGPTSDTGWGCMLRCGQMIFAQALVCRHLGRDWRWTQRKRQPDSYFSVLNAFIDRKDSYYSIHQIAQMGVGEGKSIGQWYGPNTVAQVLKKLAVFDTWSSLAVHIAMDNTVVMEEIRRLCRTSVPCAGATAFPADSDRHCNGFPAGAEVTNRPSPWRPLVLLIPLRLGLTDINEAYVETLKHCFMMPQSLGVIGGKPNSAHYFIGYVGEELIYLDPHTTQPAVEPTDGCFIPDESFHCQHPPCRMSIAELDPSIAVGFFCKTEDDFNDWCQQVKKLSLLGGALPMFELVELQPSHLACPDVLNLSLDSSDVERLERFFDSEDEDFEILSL
Chain of Lysine-specific demethylase 4C (Q9H3R0 whole entry): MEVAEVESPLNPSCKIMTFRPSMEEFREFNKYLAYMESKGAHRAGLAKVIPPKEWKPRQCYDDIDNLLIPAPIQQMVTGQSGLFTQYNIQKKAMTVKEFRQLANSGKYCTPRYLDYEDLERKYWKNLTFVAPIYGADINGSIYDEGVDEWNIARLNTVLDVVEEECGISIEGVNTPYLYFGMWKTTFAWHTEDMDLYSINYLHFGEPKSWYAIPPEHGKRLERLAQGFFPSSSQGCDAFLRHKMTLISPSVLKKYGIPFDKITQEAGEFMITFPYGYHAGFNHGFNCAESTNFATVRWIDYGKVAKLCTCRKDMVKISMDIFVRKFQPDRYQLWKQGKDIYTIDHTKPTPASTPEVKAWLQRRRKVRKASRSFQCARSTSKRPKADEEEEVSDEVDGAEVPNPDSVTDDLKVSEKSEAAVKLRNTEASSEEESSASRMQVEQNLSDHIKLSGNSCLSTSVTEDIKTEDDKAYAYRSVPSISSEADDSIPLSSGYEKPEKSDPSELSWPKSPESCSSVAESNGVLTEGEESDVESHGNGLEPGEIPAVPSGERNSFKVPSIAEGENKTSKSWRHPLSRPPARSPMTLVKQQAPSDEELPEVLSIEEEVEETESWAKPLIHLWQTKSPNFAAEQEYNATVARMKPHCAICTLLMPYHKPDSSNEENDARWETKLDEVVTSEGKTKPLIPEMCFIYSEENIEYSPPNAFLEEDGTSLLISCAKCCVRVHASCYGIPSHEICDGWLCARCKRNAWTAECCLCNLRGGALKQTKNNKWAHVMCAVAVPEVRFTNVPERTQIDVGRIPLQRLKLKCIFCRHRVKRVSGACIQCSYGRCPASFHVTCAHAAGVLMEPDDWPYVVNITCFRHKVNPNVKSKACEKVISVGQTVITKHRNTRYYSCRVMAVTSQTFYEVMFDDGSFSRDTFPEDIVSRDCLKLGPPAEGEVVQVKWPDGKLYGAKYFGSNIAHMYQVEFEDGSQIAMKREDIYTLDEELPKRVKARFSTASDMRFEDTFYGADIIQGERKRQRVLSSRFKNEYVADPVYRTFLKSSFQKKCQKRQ
Chain of 5-hydroxytryptamine receptor 5A (P47898 whole entry): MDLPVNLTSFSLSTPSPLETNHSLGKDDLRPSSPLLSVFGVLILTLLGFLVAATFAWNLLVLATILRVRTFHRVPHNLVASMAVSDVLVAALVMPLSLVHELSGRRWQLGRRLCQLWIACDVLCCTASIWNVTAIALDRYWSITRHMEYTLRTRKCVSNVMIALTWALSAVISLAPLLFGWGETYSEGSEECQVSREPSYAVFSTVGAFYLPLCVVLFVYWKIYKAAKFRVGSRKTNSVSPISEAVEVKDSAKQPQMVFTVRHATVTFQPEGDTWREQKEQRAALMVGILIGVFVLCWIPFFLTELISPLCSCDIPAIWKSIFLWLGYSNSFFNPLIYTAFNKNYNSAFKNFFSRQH
Chain of Apoptotic protease-activating factor 1 (O14727 whole entry): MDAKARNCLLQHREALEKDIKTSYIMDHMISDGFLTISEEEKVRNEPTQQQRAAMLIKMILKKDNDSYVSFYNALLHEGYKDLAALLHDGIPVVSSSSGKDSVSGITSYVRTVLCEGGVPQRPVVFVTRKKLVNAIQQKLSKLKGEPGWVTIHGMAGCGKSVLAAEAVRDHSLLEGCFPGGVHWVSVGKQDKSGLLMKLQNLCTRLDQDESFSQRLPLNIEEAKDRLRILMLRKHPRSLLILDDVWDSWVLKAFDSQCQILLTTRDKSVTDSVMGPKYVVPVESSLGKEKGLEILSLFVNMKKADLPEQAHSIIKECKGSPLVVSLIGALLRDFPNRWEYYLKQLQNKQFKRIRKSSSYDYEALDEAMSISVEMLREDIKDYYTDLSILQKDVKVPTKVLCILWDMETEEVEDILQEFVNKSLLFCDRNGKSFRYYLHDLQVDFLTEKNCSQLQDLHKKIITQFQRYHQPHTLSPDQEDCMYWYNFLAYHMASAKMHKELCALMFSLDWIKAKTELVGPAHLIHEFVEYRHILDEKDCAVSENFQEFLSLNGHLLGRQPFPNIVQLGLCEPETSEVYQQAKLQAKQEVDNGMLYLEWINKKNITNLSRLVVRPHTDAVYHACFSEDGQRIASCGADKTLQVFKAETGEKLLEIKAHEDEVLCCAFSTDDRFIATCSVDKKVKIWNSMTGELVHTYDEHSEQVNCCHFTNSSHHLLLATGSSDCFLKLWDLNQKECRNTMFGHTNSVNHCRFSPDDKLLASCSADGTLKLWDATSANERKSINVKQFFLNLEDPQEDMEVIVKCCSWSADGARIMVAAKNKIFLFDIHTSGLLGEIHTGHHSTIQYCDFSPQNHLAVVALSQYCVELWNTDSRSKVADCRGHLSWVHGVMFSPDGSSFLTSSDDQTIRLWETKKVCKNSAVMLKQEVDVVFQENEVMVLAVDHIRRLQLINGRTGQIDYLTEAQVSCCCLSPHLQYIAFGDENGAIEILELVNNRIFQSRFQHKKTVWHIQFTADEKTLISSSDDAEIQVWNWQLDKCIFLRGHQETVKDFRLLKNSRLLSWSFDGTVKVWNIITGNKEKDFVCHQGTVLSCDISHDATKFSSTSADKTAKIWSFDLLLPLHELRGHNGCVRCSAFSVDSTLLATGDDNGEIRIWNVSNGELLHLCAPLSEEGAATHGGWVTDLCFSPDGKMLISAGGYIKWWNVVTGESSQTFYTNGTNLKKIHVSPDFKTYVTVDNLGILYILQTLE

As to `Cc1nc(-c2ccccc2)sc1-c1nc(-c2ccccc2)ncc1S(=O)(=O)c1ccccc1`, the EC50 – broadly, the concentration giving half of the maximal effect – in test [1] was > 26.5 µM (inactive); in test [2] it was 61.8 µM (not active); in test [3], 38.2 µM (not active).

With `Cc1nn(Cc2c(Cl)cccc2Cl)c(C)c1NC(=O)CCCn1nc([N+](=O)[O-])c(Cl)c1C`, the half-inhibitory concentration (IC50) (commonly the concentration at which inhibition is half-maximal) was 9.88 µM (active) on Cysteine protease ATG4B and 9.06 µM (active) on Phospholipase A2.

As for `CCCN(Cc1cc2cc(C)ccc2[nH]c1=O)C(=O)c1ccccn1`, the EC50 in test [4] is > 10 µM (inactive); at Mu-type opioid receptor [5], > 32 µM (inactive); in [6], > 32 µM (inactive); in test [9], > 32 µM (inactive). Further, the IC50 (in test [7]; on Mu-type opioid receptor [8]; in test [10]) was > 32 µM (inactive) throughout.

As to `CN(C)c1ccc(C(=O)OCC(=O)N2CCCC2)cc1`, the AC50 (usually the midpoint of the concentration-response curve, whichever way the signal moves) in test [11] is 10.6 µM (active).

In the case of `O=[N+]([O-])c1ccc(N2CCCC2)c2ncccc12`, in test [12], the CC50 (commonly the concentration giving 50% cytotoxicity) is > 50 µM (active). The EC50 was 12.1 µM (inactive) at Troponin, cardiac muscle; > 99 µM (inactive) in test [13]; > 99 µM (inactive) in test [14].

On to `CC(Sc1nc2c(cc1C#N)CCCCC2)C(=O)O` (stereo not drawn), for which the AC50 in [11] is > 60 µM (inactive).

For the compound `Cc1nn(Cc2c(F)c(F)c(F)c(F)c2F)c(C)c1NC(=O)c1ccc(COc2cc(Cl)ccc2Cl)cc1`, the values for the 50% effective concentration (EC50) (in test [15]; in [16]; with H4) were > 120 µM (not active), 7.73 µM (active) and 3.37 µM (active), respectively. Further, the concentration for half-maximal inhibition (IC50) at Cysteine protease ATG4B was 0.532 µM (active); at Phospholipase A2 it was 0.27 µM (active).

With `CN1CCN(c2ccc(NC(=O)c3ccc(-c4ccc(Br)cc4)o3)cc2)CC1`, the 50% effective concentration (EC50) was 1.26 µM (active) in test [17]; > 60 µM (not active) in test [18]; > 10.3 µM (inactive) in [23]; > 3.42 µM (active) on Mu-type opioid receptor [24]; > 92.5 µM (inactive) in [25]. Also, the CC50 in test [19] is 16.7 µM (active); in test [20] it was > 20 µM (active); in [21] it was 13 µM (active). Further, the IC50 in the test “cells” is 2.59 µM (active); in test [22], 37 µM (active).

Regarding `Cc1cccc(Nc2nnc(-c3ccc(C(=O)N4C[C@H]5C[C@H](C4)c4cccc(=O)n4C5)cc3)c3ccccc23)c1`, in [26], the EC50 is 2.12 µM (active) and 1.66 µM (active).

Regarding `CCn1c(=S)[nH]c2c(c1=O)C(C)(C)Cc1ccccc1-2`, the results for the EC50 in test [1], in test [2] and in test [3] were > 79.4 µM (inactive), > 79.4 µM (not active) and > 79.4 µM (not active), respectively.

Consider `CCOc1ccccc1C(=O)NCC(=O)OCc1csc(CC(=O)Nc2ccc(C)cc2)n1`, for which the EC50 in [26] is 228 nM (active).
